How the values were obtained:
[1] = biological target: T1, human BTK (Homo sapiens, UniProt Q06187); experiment: In vitro BTK kinase activity, 33P isotope-labeled kinase assay; type: biochemical
T1 construct: purchased Reaction Biology Corp
Experimental: The IC50 values were determined using ^33P isotope-labeled kinase activity assay (Reaction Biology Corp) to evaluate the inhibitory ability of the tested compounds on human BTK.
Buffer conditions: 20 mM Hepes (pH 7.5), 10 mM MgCl2, 1 mM EGTA, 0.02% Brij35, 0.02 mg/mL BSA, 0.1 mM Na3VO4, 2 mM DTT, 1% DMSO.
Test procedure: At room temperature, the tested compound was dissolved in DMSO and a 10 mM solution was prepared for use. The substrate was dissolved in a newly prepared buffer solution, and the BTK kinase was added thereto and mixed evenly. The compound dissolved in DMSO was added to the kinase reaction mixture through Echo 550 (Acoustic technology; Nanoliter range). After incubation for 20 minutes at room temperature, ^33P-ATP was added to initiate the reaction. The reaction was carried out at room temperature for 2 hours, and the radioactivity of the reaction solution drop was detected by filtration-binding method with P81 ion exchange filter paper. The kinase activity data were expressed by comparing the kinase activity of the group containing the tested compound with the kinase activity of the blank group (only containing DMSO), and the IC50 value was obtained by curve fitting by Prism4 software (GraphPad), the experimental results were shown in Table 3.

[2] = tested on: TMD-8 human diffuse large B lymphoma cells; experiment: TMD-8 cell proliferation (Cell Titer Glo); type: cell-based; conditions: TMD8, 72 hours
Experimental: The tumor cell lines OCI-LY10 and TMD-8 were used to detect the effect of the compound of the disclosure on inhibiting tumor cell proliferation in vitro.
TMD-8 human diffuse large B lymphoma cells, from Nanjing Cobioer Biotechnology Co., Ltd
The compound was diluted with DMSO to a final concentration of 10 mM. The compound was freshly prepared and ready for use.
a) Logarithmic growth period cells were collected, counted, resuspended with complete culture medium, the cell concentration was adjusted to an appropriate concentration (determined according to the results of cell density optimization test), inoculated on 96-well plates, and 100 μL of cell suspension was added to each well. Cells were incubated in an incubator with 37° C., 100% relative humidity and 5% CO2 for 24 hours.
b) The compound to be tested was diluted to 50 μM with culture medium and then gradient diluted for 8 times. Cells were added with 25 μL/well. The final concentrations of the compound were from […], 3-fold gradient dilution, with a total of 9 concentration points.
c) Cells were incubated in an incubator with 37° C., 100% relative humidity and 5% CO2 for 72 hours;
d) 60 μL of CTG test reagent was added to the culture medium.
e) Shaked fully and reacted in the dark for 10 min. Luminescence was measured on ENVISION and the inhibition rate was calculated.
Cell growth inhibition rate %=[(RLUv−RLUs)/(RLUv−RLUb)]×100%

[3] = tested on: OCI-LY3 cell line; experiment: OCI-LY3 cell proliferation (CTG); type: cell-based; conditions: Homo sapiens, 72 hours
Experimental: The tumor cell line OCI-LY3 was used to detect the effect of the compound of the disclosure on inhibiting tumor cell proliferation in vitro.
The tumor cell line used in this experiment was provided by Nanjing Cobioer Biotechnology Co., Ltd. See Table 6 below for specific information.
The OCI-LY3 cell line was cultured in the corresponding medium at 37° C. and 5% CO2, and the logarithmic growth period cells were used for experimental planking. The cells were collected and centrifuged at 800 rpm for 5 minutes, and the culture medium was re-suspended and spread in a 96-well plate. After being cultured overnight in 37° C., 5% CO2 incubator, drugs with different concentration gradients (10 μL of prepared diluent of test compound was added) were added, and incubated in 37° C., 5% CO2 incubator for 72 hours. The cell culture plate was incubated with CTG reagent at room temperature in the dark for 30 minutes and return to room temperature. CTG solution was added into the biosafety cabinet in the dark 100 μL/well, and was shaken and mixed evenly on plate shaker in the dark for 2 minutes, and incubated at room temperature in the dark for 10 minutes. The luminous value was read and recorded with Perkin Elmer Envision instrument.
The luminous value of the blank control group was subtracted from the luminous value measured at each drug concentration, the ratio of this value to DMSO group was taken as the cell inhibition rate (%). GraphPad software was used, the logarithm of drug concentration (log drug concentration) versus inhibition rate was plotted, and the IC50 value and 95% confidence value were automatically fitted and calculated by log (inhibitor) vs. response-variable slop (four parameters) algorithm of nonlinear regression by software.

[4] = Pharmacokinetics of rats; type: in vivo; conditions: rat, plasma, SD male rats; for Vd / AUC(0-t) / clearance / half-life: IV 1 mg/kg; for Vd: read-out: Apparent volume of distribution Vdss; for AUC(0-t): read-out: Area under the plasma concentration-time curve AUC0-24h; for clearance: read-out: Clearance rate CL; for half-life: read-out: Half-life T1/2 (converted); for bioavailability / AUC / Cmax / Tmax: PO 3 mg/kg; for AUC: read-out: Area under the plasma concentration-time curve AUC; for Cmax: read-out: Peak concentration Cmax; for Tmax: read-out: Peak time Tmax
Experimental: The purpose of this experiment was to study the pharmacokinetics of the tested compound in the plasma of SD male rats after intravenous injection and oral administration.
SD male rats from 7 to 10 weeks old were selected, and the dosage of intravenous and oral administration was 1 mg/kg and 3 mg/kg respectively. Rats in the gavage group fasted for at least 12 hours before administration, and feeding was resumed after administration for 4 hours. Intravenous injection group was free to eat and drink during the whole experiment.
Drug preparation operation: in the intravenous injection group, the compound was weighed and dissolved with 5% DMSO/10% Solutol/85% H2O, and a clear solution of 0.5 mg/mL was prepared by vortex, which was filtered by a 0.22 m microporous membrane for later use. In the gavage group, the compound was dissolved in 5% DMSO/10% Solutol/85% H2O, and a uniform suspension was prepared by vortex. On the day of the experiment, the animals in the intravenous group were given the corresponding compound by a single injection through the tail vein, and the dosage volume was 2 mL/kg. In the oral group, the corresponding compounds were given by single gavage, and the dosage volume was 5 mL/kg. The animals before administration were weighed, and the administration volume was calculated according to the weight. The sampling time was 0.083 (injection group), 0.25, 0.5, 1, 2, 4, 6, 8, 10 (gavage group), 24 hours. Approximately 250 μL of whole blood was collected through the jugular vein at each time point for plasma preparation for concentration determination by high performance liquid chromatography-tandem mass spectrometry (LC-MS/MS). All animals were euthanized by CO2 anesthesia after collecting PK samples at the last time point. The non-atrioventricular model of WinnonLin™ Version 6.3 (Pharsight, Mountain View, CA) pharmacokinetic software was used to process the plasma concentration, and the pharmacokinetic parameters were calculated by linear logarithmic trapezoid method.

T1 sequence (Q06187 whole entry): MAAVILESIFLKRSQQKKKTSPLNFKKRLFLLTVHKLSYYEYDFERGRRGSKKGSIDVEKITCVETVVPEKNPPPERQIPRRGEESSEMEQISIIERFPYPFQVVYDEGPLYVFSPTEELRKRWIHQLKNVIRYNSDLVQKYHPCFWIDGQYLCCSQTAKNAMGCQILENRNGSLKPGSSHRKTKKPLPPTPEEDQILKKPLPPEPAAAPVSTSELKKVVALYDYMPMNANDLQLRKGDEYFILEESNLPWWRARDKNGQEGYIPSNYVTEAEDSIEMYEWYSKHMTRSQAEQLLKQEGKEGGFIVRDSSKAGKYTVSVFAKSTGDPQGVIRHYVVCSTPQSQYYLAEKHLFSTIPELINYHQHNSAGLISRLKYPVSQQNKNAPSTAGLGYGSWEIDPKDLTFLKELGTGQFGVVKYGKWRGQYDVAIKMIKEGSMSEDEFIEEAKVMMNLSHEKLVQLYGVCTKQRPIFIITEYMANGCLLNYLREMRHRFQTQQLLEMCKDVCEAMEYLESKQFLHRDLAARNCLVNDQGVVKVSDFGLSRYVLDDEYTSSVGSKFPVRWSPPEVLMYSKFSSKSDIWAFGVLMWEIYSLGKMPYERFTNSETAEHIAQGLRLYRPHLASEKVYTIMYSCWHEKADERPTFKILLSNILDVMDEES

Structure (SMILES) | IC50 [1] [nM] | IC50 [2] [nM] | IC50 [3] [nM] | Vd [4] [L/kg] | AUC(0-t) [4] [µM·h] | clearance [4] [mL/min/kg] | half-life [4] [h] | bioavailability [4] [%] | AUC [4] [µM·h] | Cmax [4] [µM] | Tmax [4] [h]
Cc1cc(-c2nc(C(=O)Nc3cn4cc(C(C)(C)O)nc4cc3-c3ccccc3)co2)ccn1 [WX009] | 20.1 | 37 | 121 | 0.2 | 35.5 | 1.1 | 2.5 | 55 | 59.1 | 10.1 | 1.3
CC(C)(O)c1cn2cc(NC(=O)c3coc(-c4ccnc(N)c4)n3)c(-c3ccccc3)cc2n1 [WX017] | 5.2 | 10 | 18 | 0.8 | 5.51 | 7 | 4.1 | 29 | 4.77 | 1.02 | 0.8
CC(C)(O)c1cn2cc(NC(=O)c3coc(-c4ccnc(N)c4F)n3)c(-c3ccccc3)cc2n1 [WX027] | 2.9 | 32.2 | 48 | 0.3 | 8.84 | 4 | 1.4 | 38 | 10.2 | 4.33 | 0.3
